A short description of data set [1]: in vivo. The following applies: rat, po, rats.
Data set [2] concerns blood platelets. As to the kind of experiment: Activity to inhibit the aggregation of blood platelets (collagen, ex vivo after oral administration). The format is in vivo, rat (male Wistar-ST strain). The settings on record: Rattus norvegicus, Platelet; 10 mg/Kg oral, 1 hour after administration; collagen 7 to 10 μg/ml; read-out: Inhibitory rate (blood platelet aggregation). As to the method: Male Wistar-ST strain rats of an average body weight of 250 g were used, a group consisting of 8 animals. The test compound indicated in the following Table 1 was orally administered to rats in the form of a suspension in a 1% tragacanth aqueous solution at 4 ml/Kg (the test compound 10 mg/Kg).
One hour after the administration, blood samples were obtained from the carotid artery by means of a cannule. […] Tubes were turned upside-down and then subjected to centrifugation at 200×g over 15 minutes to assign the supernatant as a platelet-rich plasma (PRP). The residue was further centrifuged at […] over 15 minutes to assign the supernatant as a platelet-poor plasma (PPP). These supernatants were applied for determining the ability to aggregate blood platelets. […] As an aggregation inducing agent, collagen (availale from Hormon-chemie A.G.) was used at a concentration of 7 to 10 μg/ml.
Inhibitory rate to aggregate blood platelets was calculated according to the following equation: [formula] A: […] in the group to which the 1% tragacanth solution alone was given (Control)
B: Aggregation rate in the group to which the tragacanth solution of the test compound was given.

The test system of data set [3] is rabbits. As to the kind of experiment: Anti-thrombotic activity: arachidonic acid-induced mortality in rabbits. In kind it is in vivo, rabbit (male New Zealand White). The following applies: of 4 rabbits. Here is the method: (§1) Male ICR-JCL strain mice with an average body weight of about 25 g and male New Zealand White rabbits with an average body weight of about 3 Kg were used.
Where rabbits were used as experimental animals, a suspension of the test compound in a 1% tragacanth aqueous solution was orally administered to animals at 5 ml/Kg. Two hours after the administration, an arachidonic acid solution dissolved in a 0.1M potassium carbonate solution was injected into pinna vein at 1.4 mg/Kg.
Evaluation of activity was effected with mortality at the time when arachidonic acid given. If survived at the first administration of arachidonic acid, arachidonic acid was administered after 6 hours, 24 hours, 48 hours and 72 hours from the administration of the test compound, respectively, and mortality was determined in respective cases.

The subject of data set [4] is mice. As to the kind of experiment: Anti-thrombotic activity: arachidonic acid-induced mortality in mice. The settings on record: for Survival time of dead mice: arachidonic acid 100 mg/Kg i.v.; for Mortality: arachidonic acid 100 mg/Kg i.v. after 1 hour. In kind it is in vivo, mouse (male ICR-JCL strain). As to the method: as §1
Where mice were used as experimental animals, a suspension of the test compound indicated in Table 3 in a 1% tragacanth aqueous solution was orally administered to animals at 20 ml/Kg. One hour after the administration, an arachidonic acid (PL-biochemical Co., Inc.) solution dissolved in a 0.1M sodium carbonate aqueous solution was intravenously given at 100 mg/Kg. Evaluation of activity was effected with the time from the administration of arachidonic acid up to the death of animals as well as mortality.

For `CCC(C)CNc1nnc(-c2ccccc2)c2ccccc12` (stereo not drawn) [compound 9], the LD50 – broadly, the dose at which mortality reaches 50% – in data set [1] amounted to 2180 mg/kg. The inhibition at 10 mg/kg in data set [2] was determined as 79.2%.

For the molecule `CC(C)C(C)Nc1nnc(-c2ccccc2)c2ccccc12` (stereo not drawn) [compound 10], the LD50 in data set [1] worked out at 2530 mg/kg. Also, the inhibition at 10 mg/kg in data set [2] amounted to 54.1%. In data set [1], `CCCCCNc1nnc(-c2ccccc2)c2ccccc12` [compound 7] returned an LD50 of 1780 mg/kg. In data set [2], the inhibition at 10 mg/kg was found to be 6.2%. Regarding `CCC(CC)CNc1nnc(-c2ccccc2)c2ccccc12` [compound 15], the inhibition at 10 mg/kg in data set [2] is 14.6%. Consider `CC(C)CNc1nnc(-c2ccccc2)c2ccccc12` [compound 4], for which the inhibition at 10 mg/kg in data set [2] amounted to 0%.

For `CCCCCCCNc1nnc(-c2ccccc2)c2ccccc12` [compound 19], in data set [2], the inhibition at 10 mg/kg came to 0%. Turning to `CCCCCCCCNc1nnc(-c2ccccc2)c2ccccc12` [compound 20], the inhibition at 10 mg/kg in data set [2] was found to be 0%.

Turning to `CCCC(C)Nc1nnc(-c2ccccc2)c2ccccc12` (stereo not drawn) [compound 8], the inhibition at 10 mg/kg in data set [2] was determined as 0%. In the case of `c1ccc(-c2nnc(NC3CCCC3)c3ccccc23)cc1` [compound 13], the inhibition at 10 mg/kg in data set [2] is 0%. Still for that read-out and setting: as for `CCCCNc1nnc(-c2ccccc2)c2ccccc12` [compound 3], the figure is 0%; as for `CCC(C)(C)Nc1nnc(-c2ccccc2)c2ccccc12` [compound 12], 0%. In the case of `CC(C)CC(C)Nc1nnc(-c2ccccc2)c2ccccc12` (stereo not drawn) [compound 16], the inhibition at 10 mg/kg in data set [2] worked out at 0%.

On to `Clc1ccccc1CN1CCc2sccc2C1` [Ticlopidine, ticlopidine, reference compound], for which the “Mortality (number of rabbits)” value in data set [3] (30 mg/Kg oral, 2 hrs. after administration) stood at 4; in data set [3] (100 mg/Kg oral, 2 hrs. after administration) it was 3; in data set [3] (100 mg/Kg oral, 6 hrs. after administration), 1. For the same molecule, the “Survival time of dead mice” value in data set [4] (300 mg/Kg oral) was found to be 81 ± 13 s; in data set [4] (1000 mg/Kg oral) it was 128 ± 18 s. Besides, the Mortality in data set [4] (300 mg/Kg oral) and in data set [4] (1000 mg/Kg oral) was 100% each time. On to `c1ccc(-c2nnc(NC3CCCCC3)c3ccccc23)cc1` [compound 18], for which the inhibition at 10 mg/kg in data set [2] was 0%.

Regarding `CC(C)CCNc1nnc(-c2ccccc2)c2ccccc12` [compound 11], in data set [2], the inhibition at 10 mg/kg worked out at 24%.

Regarding `CCCCCCNc1nnc(-c2ccccc2)c2ccccc12` [compound 14], in data set [2], the inhibition at 10 mg/kg was 15.6%. With `CCCNc1nnc(-c2ccccc2)c2ccccc12` [compound 1], in data set [2], the inhibition at 10 mg/kg was 27.6%.

`CC(C)(C)Nc1nnc(-c2ccccc2)c2ccccc12` [compound 6]: the inhibition at 10 mg/kg in data set [2] was found to be 0%. With `CCC(C)Nc1nnc(-c2ccccc2)c2ccccc12` (stereo not drawn) [compound 5], the inhibition at 10 mg/kg in data set [2] came out at 0%.

In the case of `CC(C)Nc1nnc(-c2ccccc2)c2ccccc12` [compound 2], the inhibition at 10 mg/kg in data set [2] amounted to 7.1%.

On to `CC(C)(C)CCNc1nnc(-c2ccccc2)c2ccccc12` [compound 17], for which the inhibition at 10 mg/kg in data set [2] is 17.3%.

The values above are taken from patent US4668677A, “4-phenylphthalazine derivatives, their preparation and their use as pharmaceuticals” (Mitsubishi Chemical Industries Limited, priority 1984, dated 1987).
